# Results: patent publication US20130041142A1, “HUMAN SWEET TASTE RECEPTOR-ACTING SWEET TASTE REGULATING SUBSTANCE TO SWEET TASTE SUBSTANCE” (priority 2009, published 2013)
# Peptide text beside a SMILES is read from it.
# Target: T1, human sweet taste receptor (hT1R2+hT1R3) (Homo sapiens, UniProt Q7RTX0+Q8TE23)
# T1 construct: includes all portions of respective subunits, that is, all regions of a transmembrane domain; pcDNA5/FRT construct co-transfected with pOG44
# T1 sequence (Q8TE23 20-839): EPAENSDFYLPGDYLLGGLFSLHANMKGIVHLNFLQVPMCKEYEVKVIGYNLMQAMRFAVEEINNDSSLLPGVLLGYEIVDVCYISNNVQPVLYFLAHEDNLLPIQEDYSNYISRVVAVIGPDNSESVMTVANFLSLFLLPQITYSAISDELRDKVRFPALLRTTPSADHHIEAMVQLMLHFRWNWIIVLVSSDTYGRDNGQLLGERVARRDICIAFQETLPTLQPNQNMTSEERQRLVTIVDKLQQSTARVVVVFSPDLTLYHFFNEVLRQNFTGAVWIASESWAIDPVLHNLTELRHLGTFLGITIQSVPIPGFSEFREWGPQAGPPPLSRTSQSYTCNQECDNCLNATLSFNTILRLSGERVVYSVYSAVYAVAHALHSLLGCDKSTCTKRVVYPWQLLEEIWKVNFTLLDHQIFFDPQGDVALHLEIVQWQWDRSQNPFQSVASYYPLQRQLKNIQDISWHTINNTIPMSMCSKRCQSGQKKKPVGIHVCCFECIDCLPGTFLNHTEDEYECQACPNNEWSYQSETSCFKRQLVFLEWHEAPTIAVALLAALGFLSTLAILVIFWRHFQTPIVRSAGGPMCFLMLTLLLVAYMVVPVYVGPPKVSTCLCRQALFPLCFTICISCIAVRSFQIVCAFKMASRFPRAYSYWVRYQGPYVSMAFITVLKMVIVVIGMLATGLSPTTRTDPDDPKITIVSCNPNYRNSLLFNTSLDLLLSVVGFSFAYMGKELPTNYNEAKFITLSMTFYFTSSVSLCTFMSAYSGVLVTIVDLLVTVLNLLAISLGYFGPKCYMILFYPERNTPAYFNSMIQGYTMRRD
# T1 sequence (Q7RTX0 21-852): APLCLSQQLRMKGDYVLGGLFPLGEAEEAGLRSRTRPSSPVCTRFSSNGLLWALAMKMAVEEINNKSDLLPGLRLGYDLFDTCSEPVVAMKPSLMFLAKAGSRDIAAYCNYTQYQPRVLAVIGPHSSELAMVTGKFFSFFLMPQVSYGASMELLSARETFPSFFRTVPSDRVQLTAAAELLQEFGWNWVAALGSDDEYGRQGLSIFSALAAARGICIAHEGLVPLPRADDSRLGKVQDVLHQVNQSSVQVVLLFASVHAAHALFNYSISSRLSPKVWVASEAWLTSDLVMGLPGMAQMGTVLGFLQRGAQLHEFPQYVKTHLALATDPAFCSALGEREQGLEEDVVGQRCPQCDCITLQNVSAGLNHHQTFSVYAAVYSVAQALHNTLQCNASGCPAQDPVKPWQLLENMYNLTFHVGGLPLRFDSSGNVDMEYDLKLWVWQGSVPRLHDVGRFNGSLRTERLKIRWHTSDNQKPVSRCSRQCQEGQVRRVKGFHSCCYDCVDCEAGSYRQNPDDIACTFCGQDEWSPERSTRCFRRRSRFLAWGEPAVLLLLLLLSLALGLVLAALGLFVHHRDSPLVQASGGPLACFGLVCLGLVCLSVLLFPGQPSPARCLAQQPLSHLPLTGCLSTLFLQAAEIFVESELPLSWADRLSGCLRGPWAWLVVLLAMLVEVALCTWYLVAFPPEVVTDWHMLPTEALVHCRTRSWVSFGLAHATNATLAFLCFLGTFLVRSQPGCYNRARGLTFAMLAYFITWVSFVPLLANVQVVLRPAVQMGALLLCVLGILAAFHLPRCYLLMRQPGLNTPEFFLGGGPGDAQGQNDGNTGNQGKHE
# Experiment: automated fluorescent calcium imaging (Fluo-4 AM, FlexStation 3) of sweet taste receptor-expressing cells
# Assay type: cell-based
# Conditions: for Change amount in fluorescent intensity (ΔF): 27° C., to 100 seconds
# Protocol: After cultured at 37° C. for 24 hours, the medium was removed, and replaced with 50 μl of a HEPES buffer, and […] of a HEPES buffer containing a fluorescent calcium indicator (Fluo-4 AM attached to Molecular Devices, FLIPR Ca 4 Assay Kit) was further added. Then, this was incubated at 27° C. for 45 minutes to prepare a cell to be subjected to automated fluorescent imaging. […]
# In the same manner as that described above, […] subjected to automated fluorescent imaging, so that a final concentration of sucrose became a concentration described in Table 2, a HEPES buffer containing conc. neohesperidin dihydrochalcone was further added so that a final concentration of neohesperidin dihydrochalcone became 2 v/v %, stimulation was performed at 27° C., a fluorescent reaction (excitation at 485 nm, fluorescence at 525 nm) from immediately after addition of the solution to after 100 seconds was measured by using FlexStation 3 (Molecular Devices), and a response of a sweet taste receptor-expressing cell when neohesperidin dihydrochalcone was added to sucrose was quantitated. The vertical axis of FIG. 3 is a maximum (ΔF) of a change amount in a fluorescent intensity between immediately after stimulation and after 100 seconds from stimulation, that is, a response intensity of a cell, and the horizontal axis indicates a sucrose concentration (mM) as expressed by logarithm.
smiles,measurement,setting,value
"COC(=O)[C@H](Cc1ccccc1)NC(=O)[C@@H](N)CC(=O)O [Aspartame, aspartame] (H-Asp-Phe-OMe)",Change amount in fluorescent intensity (ΔF),aspartame 0.167 mM alone,6.568
same,Change amount in fluorescent intensity (ΔF),aspartame 0.333 mM alone,12.578
same,Change amount in fluorescent intensity (ΔF),aspartame 0.667 mM alone,33
same,Change amount in fluorescent intensity (ΔF),aspartame 2 mM alone,72.005
"O=C1NS(=O)(=O)c2ccccc21 [Saccharin, saccharin]",Change amount in fluorescent intensity (ΔF),saccharin 0.167 mM alone,7.609
same,Change amount in fluorescent intensity (ΔF),saccharin 0.333 mM alone,22.936
same,Change amount in fluorescent intensity (ΔF),saccharin 0.667 mM alone,56.59
same,Change amount in fluorescent intensity (ΔF),saccharin 2 mM alone,86.194
"OC[C@H]1O[C@@](CO)(O[C@H]2O[C@H](CO)[C@@H](O)[C@H](O)[C@H]2O)[C@@H](O)[C@@H]1O [Sucrose, sucrose]",Change amount in fluorescent intensity (ΔF),sucrose 3.125 mM alone,4.2
same,Change amount in fluorescent intensity (ΔF),sucrose 6.25 mM alone,4.6
same,Change amount in fluorescent intensity (ΔF),sucrose 12.5 mM alone,4.1
same,Change amount in fluorescent intensity (ΔF),sucrose 25 mM alone,5.7
same,Change amount in fluorescent intensity (ΔF),sucrose 50 mM alone,9.2
same,Change amount in fluorescent intensity (ΔF),sucrose 100 mM alone,23.3
same,Change amount in fluorescent intensity (ΔF),sucrose 200 mM alone,34.9
same,concentration below which a response of a sweet taste receptor cell is not observed,sucrose alone,around 50 mM
